Laboratory results from ChEMBL document CHEMBL1201862, “PubChem BioAssay data set” (2004).
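Protocol summary: plate cells (96-well), add compound at 5 concentrations, incubate 48 h, interpolate endpoints linearly. GI50 is the concentration that inhibits growth by half.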 The source made the active and inactive calls. Rule as the data show it: active = GI50 up to about 1.1 µM and inactive = higher.

Columns and labels:
Assay in all cases: inhibition of tumour cell growth, NCI panel, 48 h
[1] = system: SNB-75
[2] = system: TK-10
[3] = system: SK-MEL-5
[4] = system: SW-620
[5] = system: CCRF-CEM
[6] = system: SF-295
[7] = system: SN12C
[8] = system: NCI-H460
[9] = system: MCF7
[10] = system: HOP-62
[11] = system: MDA-MB-435
[12] = system: SF-539
[13] = system: COLO 205
[14] = system: KM12
[15] = system: RPMI-8226
[16] = system: A498
[17] = system: U-251
[18] = system: HCT-116
[19] = system: HT-29
[20] = system: K562
[21] = system: SK-OV-3
[22] = system: MOLT-4
[23] = system: A549
[24] = system: NCI-H23
[25] = system: HCC 2998
[26] = system: MDA-MB-231
[27] = system: EKVX
[28] = system: IGROV-1
[29] = system: CAKI-1
[30] = system: OVCAR-5
[31] = system: SK-MEL-2
[32] = system: NCI/ADR-RES
[33] = system: SF-268
[34] = system: UO-31
[35] = system: OVCAR-8
[36] = system: MDA-N
[37] = system: SNB-19
[38] = system: BT-549
[39] = system: NCI-H522
[40] = system: ACHN
[41] = system: HCT-15
[42] = system: M14
[43] = system: NCI-H226
[44] = system: T47D
[45] = system: LOX IMVI
[46] = system: UACC-257
[47] = system: DU-145
[48] = system: 786-0
[49] = system: Malme-3M
[50] = system: OVCAR-3
[51] = system: PC-3
[52] = system: HOP-92
[53] = system: OVCAR-4
[54] = system: SK-MEL-28
[55] = system: UACC-62
[56] = system: SR
[57] = system: Hs-578T
[58] = system: RXF 393
[59] = system: HL-60

**Q.** How did the GI50 [1] turn out when `CCOC(=O)C1=CC(C)(C(=O)OCC)Nc2c(nc(SC)n(C)c2=O)N1` (centres undefined) was run?
**A.** > 10 µM (inactive)

**Q.** What about the GI50 [2] of the same molecule?
**A.** > 10 µM (inactive)

**Q.** What about the GI50 [3] of the same molecule?
**A.** > 10 µM (inactive)

**Q.** What about the GI50 [4] of the same molecule?
**A.** > 10 µM (inactive)

**Q.** What about the GI50 [5] of the same molecule?
**A.** > 10 µM (inactive)

**Q.** And the GI50 [6]?
**A.** > 10 µM (inactive)

**Q.** And the GI50 [7]?
**A.** > 10 µM (inactive)

**Q.** And the GI50 [8]?
**A.** > 10 µM (inactive)

**Q.** What about the GI50 [9] of the same molecule?
**A.** > 10 µM (inactive)

**Q.** What about the GI50 [10] of the same molecule?
**A.** > 10 µM (inactive)

**Q.** What about the GI50 [11] of the same molecule?
**A.** > 10 µM (inactive)

**Q.** What about the GI50 [12] of the same molecule?
**A.** > 10 µM (inactive)

**Q.** And the GI50 [13]?
**A.** > 10 µM (inactive)

**Q.** And the GI50 [14]?
**A.** > 10 µM (inactive)

**Q.** And the GI50 [15]?
**A.** > 10 µM (inactive)

**Q.** What about the GI50 [16] of the same molecule?
**A.** > 10 µM (inactive)

**Q.** What about the GI50 [17] of the same molecule?
**A.** > 10 µM (inactive)

**Q.** And the GI50 [18]?
**A.** > 10 µM (inactive)

**Q.** And the GI50 [19]?
**A.** > 10 µM (inactive)

**Q.** And the GI50 [20]?
**A.** > 10 µM (inactive)

**Q.** What about the GI50 [21] of the same molecule?
**A.** > 10 µM (inactive)

**Q.** And the GI50 [22]?
**A.** > 10 µM (inactive)

**Q.** And the GI50 [23]?
**A.** > 10 µM (inactive)

**Q.** And the GI50 [24]?
**A.** > 10 µM (inactive)

**Q.** And the GI50 [25]?
**A.** > 10 µM (inactive)

**Q.** What about the GI50 [26] of the same molecule?
**A.** > 10 µM (inactive)

**Q.** And the GI50 [27]?
**A.** > 10 µM (inactive)

**Q.** And the GI50 [28]?
**A.** > 10 µM (inactive)

**Q.** And the GI50 [29]?
**A.** > 10 µM (inactive)

**Q.** And the GI50 [30]?
**A.** > 10 µM (inactive)

**Q.** What about the GI50 [31] of the same molecule?
**A.** > 10 µM (inactive)

**Q.** And the GI50 [32]?
**A.** > 10 µM (inactive)

**Q.** What about the GI50 [33] of the same molecule?
**A.** > 10 µM (inactive)

**Q.** And the GI50 [34]?
**A.** > 10 µM (inactive)

**Q.** What about the GI50 [35] of the same molecule?
**A.** > 10 µM (inactive)

**Q.** What about the GI50 [36] of the same molecule?
**A.** > 10 µM (inactive)

**Q.** And the GI50 [37]?
**A.** > 10 µM (inactive)

**Q.** What about the GI50 [38] of the same molecule?
**A.** > 10 µM (inactive)

**Q.** And the GI50 [39]?
**A.** > 10 µM (inactive)

**Q.** What about the GI50 [40] of the same molecule?
**A.** > 10 µM (inactive)

**Q.** And the GI50 [41]?
**A.** > 10 µM

**Q.** What about the GI50 [42] of the same molecule?
**A.** > 10 µM (inactive)

**Q.** What about the GI50 [43] of the same molecule?
**A.** > 10 µM (inactive)

**Q.** And the GI50 [44]?
**A.** > 10 µM (inactive)

**Q.** And the GI50 [45]?
**A.** > 10 µM (inactive)

**Q.** What about the GI50 [46] of the same molecule?
**A.** > 10 µM (inactive)

**Q.** And the GI50 [47]?
**A.** > 10 µM (inactive)

**Q.** And the GI50 [48]?
**A.** > 10 µM (inactive)

**Q.** What about the GI50 [49] of the same molecule?
**A.** > 10 µM (inactive)

**Q.** And the GI50 [50]?
**A.** > 10 µM (inactive)

**Q.** What about the GI50 [51] of the same molecule?
**A.** > 10 µM (inactive)

**Q.** And the GI50 [52]?
**A.** > 10 µM (inactive)

**Q.** And the GI50 [53]?
**A.** > 10 µM (inactive)

**Q.** What about the GI50 [54] of the same molecule?
**A.** > 10 µM (inactive)

**Q.** What does the source list for `O/N=N/c1ccc([SH2]c2ccc3ccccc3c2)cn1`?
**A.** GI50 [55]: 27.6 µM (inactive); GI50 [56]: 21.8 µM (inactive); GI50 [1]: 20.2 µM (inactive); GI50 [2]: 28.6 µM (inactive); GI50 [3]: 16.3 µM (inactive); GI50 [4]: 28.3 µM (inactive); GI50 [57]: 43 µM (inactive); GI50 [5]: 3.04 µM (inactive); GI50 [6]: 25.8 µM (inactive); GI50 [58]: < 0.01 µM (active); GI50 [7]: 20.5 µM (inactive); GI50 [8]: 15.4 µM (inactive); GI50 [9]: 17.9 µM (inactive); GI50 [10]: 15.1 µM (inactive); GI50 [12]: 41.9 µM (inactive); GI50 [13]: 20.2 µM (inactive); GI50 [14]: 41.4 µM (inactive); GI50 [16]: 57.9 µM (inactive); GI50 [17]: 19.3 µM (inactive); GI50 [18]: 15 µM (inactive); GI50 [19]: 34 µM (inactive); GI50 [20]: 16.8 µM (inactive); GI50 [21]: 43.9 µM (inactive); GI50 [22]: 1.62 µM (inactive); GI50 [23]: 33 µM (inactive); GI50 [24]: 12.2 µM (inactive); GI50 [59]: 3.97 µM (inactive); GI50 [25]: 13.4 µM (inactive); GI50 [26]: 30.1 µM (inactive); GI50 [27]: 23.6 µM (inactive); GI50 [28]: 32.7 µM (inactive); GI50 [29]: 17.7 µM (inactive); GI50 [30]: 32.7 µM (inactive); GI50 [31]: 15.4 µM (inactive); GI50 [32]: 19.1 µM (inactive); GI50 [33]: 22.3 µM (inactive); GI50 [34]: 24.6 µM (inactive); GI50 [35]: 19.1 µM (inactive); GI50 [36]: 31.4 µM (inactive); GI50 [37]: 40.2 µM (inactive); GI50 [38]: 23 µM (inactive); GI50 [39]: 17.5 µM (inactive); GI50 [40]: 18.6 µM (inactive); GI50 [41]: 17.1 µM; GI50 [42]: 19.3 µM (inactive); GI50 [43]: 31.6 µM (inactive); GI50 [44]: 20.6 µM (inactive); GI50 [46]: 36.1 µM (inactive); GI50 [47]: 17.1 µM (inactive); GI50 [48]: 31.3 µM (inactive); GI50 [49]: 0.955 µM (active); GI50 [50]: 43.8 µM (inactive); GI50 [51]: 8.85 µM (inactive); GI50 [53]: > 100 µM (inactive); GI50 [54]: 32.7 µM (inactive)
